Test results reported in article PMC4745926, “Absorption, Metabolism, and Excretion by Freely Moving Rats of 3,4-DHPEA-EDA and Related Polyphenols from Olive Fruits (Olea europaea)” (Journal of Nutrition and Metabolism, 2016).
Values joined by “and” are separate entries in the source; they are usually repeats but may differ in a detail not shown here. Equal values may be shown once. “Also recorded” adds a separate entry of the source. Read-outs that look alike come from different tables or passages of the source. Values belong to the molecule of their own block, whether it stands above or below them.

Assays:
[1] = Portal plasma pharmacokinetics after oral administration in portal vein cannulated, freely moving rats; format: in vivo, Wistar ST rats; details: for AUC: 0→4 h after oral administration, mean ± SEM; for bioavailability: plasma, intact compound, oral versus intravenous administration, read-out: bioavailability for 4 hours
Description: (§1) SPF Wistar ST rats (6 weeks of age, male, 180 ± 20 g of body weight) were purchased from Japan SLC Inc. (Hamamatsu, Japan). The rats were housed in an air-conditioned room at 22 ± 2°C under cycles of 12 hours dark and 12 hours light and given free access to a commercial diet and water for a week. The rats were then fasted for over 16 hours before the experiments. The present study was approved by the Animal Care and Use Committee at Kagawa University, and the rat treatment conformed to the Rules of Animal Experiments at Kagawa University. After fasting, the rats were cannulated with a polyethylene tube (PE-50; 0.58 mm I.D., 0.965 mm O.D.) into the jugular vein, portal vein, or bile duct under anesthesia with isoflurane inhalation using a WP-SAA01 (LMS Co., Ltd., Tokyo, Japan). A small hole was made in the vein or duct using pointed scissors and cannulated with the polyethylene tube. After inserting the tube, it was fixed at the edge of the vein or duct. The jugular vein and portal vein cannulas penetrated under the skin and were then tied at the back of the rats, and the bile duct cannula was tied at the abdomen of the rats. Bile duct-cannulated rats were then restrained in a Bollman cage (Natsume Seisakusho Co., Ltd., Tokyo, Japan). Before further experiments, the rats were allowed to recover from anesthesia. 3,4-[…] (300 mg/kg body weight; 936.51 μmol/kg) dissolved in 50% polyethylene glycol aqueous solution was administered orally via a stomach tube to the portal vein cannulated rats. Blood samples (450 μL) were then collected using a heparinized syringe attached to the cannula before administration and 5, 15, 30, 60, 120, and 240 min after administration. Urine was also collected before administration and 0 to 2 h and 2 to 4 h after administration. For intravenous administration, 3,4-[…] (10 mg/kg; 31.22 μmol/kg) was injected into the jugular vein, and blood (450 μL) was collected using a heparinized syringe before administration and 5, 15, 30, 60, 120, and 240 min after administration via the jugular vein cannula. The blood (450 μL) collected was immediately cooled on ice and centrifuged at 15,000 rpm for 5 min at 4°C to obtain over 200 μL plasma. Urine was also collected before administration and 0 to 2 h and 2 to 4 h after administration. Bile was collected via the bile duct cannula before administration and 0 to 2 h and 2 to 4 h after intravenous administration. The collected plasma, urine, and bile were immediately stored in an ice box until further analyses. HT (oral administration: 100 mg/kg; 648.66 μmol/kg, intravenous administration: 10 mg/kg; 64.87 μmol/kg) and Ole (oral administration: 300 mg/kg; 555.02 μmol/kg, intravenous administration: 10 mg/kg; 18.50 μmol/kg) were investigated using the same method as described above. Metabolites were deconjugated by using β-glucuronidase (500 U) and sulfatase (50 U) in 50 μL 625 mM MOPS (pH 6.8), which was added to 200 μL of plasma, urine, or bile. The mixture was incubated for 45 min at 37°C and subjected to extraction using QuEChERS [33]. […] Shimadzu, Kyoto, Japan) equipped with a Shim-pack XR-ODS column (3.0 mm I.D. × 100 mm; Shimadzu, Kyoto, Japan) at 40°C with a mobile phase of 0.5% TFA-1% acetonitrile aqueous solution (A) and 0.5% TFA-75% acetonitrile aqueous solution (B). The elution conditions are described as follows: isocratic elution of 0% B was maintained for 4.0 min; linear gradient 0 to 4% B, 4.0-4.5 min; linear gradient 4.0-16.0% B, 4.5-16.0 min; linear gradient 16.0-100% B, 16.0-25.0 min; isocratic elution of 100% B, 25.0-26.0 min; and linear gradient 100 to 0% B, 26.0-26.1 min, with a flow rate of 0.5 mL/min. Injection volume was 50 μL. All eluted peaks were detected at 279 nm with a diode array detector (SPD-M20A; Shimadzu, Kyoto, Japan). The absorption of 3,4-[…], and Ole was evaluated by dose-normalized 4 h area under the curve (AUC0→4 h/Dose) and C max/Dose values (Table 2). […]

[2] = Jugular vein plasma levels after intravenous administration in jugular vein cannulated, freely moving rats; format: in vivo, Wistar ST rats; details: for Cmax: analyte HT, at 5 min after intravenous administration, read-out: C max of HT in plasma
Description: as §1

[3] = analyte HT in portal plasma after oral administration
[4] = analyte HVA in portal plasma after oral administration
[5] = analyte HVAOH in portal plasma after oral administration
[6] = analyte HT in portal plasma after oral administration, listed as HT
[7] = male, Wistar ST, rat, portal vein plasma, 100 mg/kg, analyte HT in portal plasma after oral administration
[8] = after intravenous administration, 10 mg/kg
[9] = analyte Ole in portal plasma after oral administration
[10] = male, Wistar ST, rat, 300 mg/kg, analyte Ole in portal plasma after oral administration

AUC ([1]; Total of detected analytes in portal plasma): 34049.5 ± 5539.3 µM·min
C max/Dose [1, 3]: 0.22 μM·kg/μmol
Cmax [1, 3]: 179 ± 45.3 µM
T max [1, 3]: 30 min
AUC ([1]; analyte HT in portal plasma, triplicate): 25935.0 ± 3103.1 µM·min
Cmax [1, 4]: 21.5 ± 6.9 µM
T max [1, 4]: 60 min
AUC ([1]; analyte HVA in portal plasma, triplicate): 4180.0 ± 1646.5 µM·min
Cmax [1, 5]: 22.2 ± 2 µM
T max [1, 5]: 30 min
AUC ([1]; analyte HVAOH in portal plasma, triplicate): 3934.5 ± 789.7 µM·min
total absorption rate, times less than that of HT ([1]; total AUC0→4 h-i.g./Dosei.g. including metabolites): 2.2 times
ratio of AUC/Dose of 3,4-DHPEA-EDA : HT : Ole ([1]; total including metabolites in portal plasma after oral administration, Ole = 1): 13.5
AUC0→4 h-i.v./Dosei.v. ([2]; analyte HT in jugular vein plasma after intravenous administration): 259.2 μM·min·kg/μmol
Cmax ([2]; 10 mg/kg): ~131 µM
AUC0→4 h-i.v./Dosei.v. ([2]; analyte HVA in jugular vein plasma after intravenous administration): 22.4 μM·min·kg/μmol
AUC0→4 h-i.v./Dosei.v. ([2]; analyte HVAOH in jugular vein plasma after intravenous administration): 56.0 μM·min·kg/μmol
SMILES: CC=C(C=O)C(CC=O)CC(=O)OCCc1ccc(O)c(O)c1 (stereo not shown) [3,4-DHPEA-EDA, 3,4-dihydroxyphenylethyl elenolate dialdehydic form]
AUC/Dose (AUC0→4 h-i.g./Dosei.g.) ([1]; Total of detected analytes in portal plasma after oral administration): 36.4 μM·min·kg/μmol and 36.4 ± 5.9 μM·min·kg/μmol
Detection of parent 3,4-DHPEA-EDA in portal plasma ([1]; after oral administration, 300 mg/kg, 936.51 μmol/kg, 300 mg/kg): not observed; also recorded: not detected; also recorded: could not detect
AUC/Dose (AUC0→4 h-i.g./Dosei.g.) [1, 3]: 27.7 μM·min·kg/μmol and 27.7 ± 3.3 μM·min·kg/μmol
AUC/Dose (AUC0→4 h-i.g./Dosei.g.) [1, 4]: 4.5 μM·min·kg/μmol and 4.5 ± 1.8 μM·min·kg/μmol
C max/Dose [1, 4]: 0.03 μM·kg/μmol and 0.03 ± 0.007 μM·kg/μmol
AUC/Dose (AUC0→4 h-i.g./Dosei.g.) [1, 5]: 4.2 μM·min·kg/μmol and 4.2 ± 0.8 μM·min·kg/μmol
C max/Dose [1, 5]: 0.03 μM·kg/μmol and 0.03 ± 0.002 μM·kg/μmol
Detection of intact 3,4-DHPEA-EDA in plasma and hematocytes ([2]; jugular vein, after intravenous administration, 10 mg/kg, 31.22 μmol/kg, 10 mg/kg): not detected; also recorded: not observed

AUC/Dose (AUC0→4 h-i.g./Dosei.g.) [1, 3]: 51.1 ± 8.5 μM·min·kg/μmol
C max/Dose [1, 3]: 0.61 ± 0.089 μM·kg/μmol
AUC/Dose (AUC0→4 h-i.g./Dosei.g.) [1, 6]: 51.1 μM·min·kg/μmol
C max/Dose [1, 6]: 0.61 μM·kg/μmol
AUC/Dose (AUC0→4 h-i.g./Dosei.g.) ([1]; analyte HT in portal plasma after oral administration, listed as hydroxytyrosol): 51.1 μM·min·kg/μmol
bioavailability ([1]; male, Wistar ST, rat): 13.1%
Cmax [1, 7]: 395 ± 58 µM
Tmax [1, 7]: 15 min
AUC ([1]; male, Wistar ST, rat, portal vein plasma, 100 mg/kg, analyte HT in portal plasma, triplicate, read-out: AUC (converted)): 33200 µM·min
Time at which intact compound disappeared from the systemic circulation [2, 8]: about 15 min
Cmax ([2]; male, Wistar ST, rat, plasma, 10 mg/kg): 1740 µM
SMILES: OCCc1ccc(O)c(O)c1 [Hydroxytyrosol, 2-(3,4-dihydroxyphenyl) ethyl alcohol, reference compound]

AUC/Dose (AUC0→4 h-i.g./Dosei.g.) [1, 9]: 1.8 ± 0.4 μM·min·kg/μmol
C max/Dose [1, 9]: 0.021 ± 0.006 μM·kg/μmol
AUC/Dose (AUC0→4 h-i.g./Dosei.g.) ([1]; analyte Ole in portal plasma after oral administration, listed as Ole): 1.8 μM·min·kg/μmol
Cmax [1, 10]: 11.9 ± 3.2 µM
Tmax [1, 10]: 5 min
AUC ([1]; male, Wistar ST, rat, 300 mg/kg, analyte Ole in portal plasma, triplicate, read-out: AUC (converted)): 1020 µM·min
bioavailability ([1]; male, Wistar ST, rat): 0.5%
Other metabolites in plasma throughout the blood sampling ([2]; after intravenous administration of Ole, 10 mg/kg): could not be detected
Time at which intact compound disappeared from the systemic circulation [2, 8]: ≤ 60 min
concentration at 5 min ([2]; male, Wistar ST, rat, plasma, after intravenous administration, 10 mg/kg, 18.50 μmol/kg, read-out: Ole detected in the plasma at 5 min): 502 µM
SMILES: C/C=C1/[C@H](O[C@@H]2O[C@H](CO)[C@@H](O)[C@H](O)[C@H]2O)OC=C(C(=O)OC)[C@H]1CC(=O)OCCc1ccc(O)c(O)c1 [Oleuropein, reference compound]
